# Reference: BindingDB's records for doi:10.1021/jm970389+ (Abbott Laboratories, 1998)
# Assay: The compound was evaluated for its binding affinity against PAF receptor in rabbit platelet
row,Structure (SMILES),Ki [nM]
1,"CC(=O)OC[n+]1cccc([C@H]2SCc3c(C(=O)c4cn(C(=O)N(C)C)c5cc(-c6ccc(F)cc6)ccc45)ccn32)c1 [1-Acetoxymethyl-3-{(R)-7-[1-dimethylcarbamoyl-6-(4-fluoro-phenyl)-1H-indole-3-carbonyl]-1H-pyrrolo[1,2-c]thiazol-3-yl}-pyridinium; chloride]",3.8

# Assay: Binding potency against Platelet activating factor (PAF) receptor using [3H]C18-PAF as radioligand on rabbit platelet membranes
row,Structure (SMILES),Ki [nM]
1,"Cc1nc2cnccc2n1Cc1ccc(C(=O)c2cn(C(=O)N(C)C)c3cccc(OC(=O)N(C)C)c23)cc1F [Dimethyl-carbamic acid 1-dimethylcarbamoyl-3-[3-fluoro-4-(2-methyl-imidazo[4,5-c]pyridin-1-ylmethyl)-benzoyl]-1H-indol-4-yl ester]",31
2,"Cc1nc2cnccc2n1Cc1ccc(C(=O)c2cn(C(=O)N(C)C)c3cccc(C(=O)OC(C)C)c23)cc1 [1-Dimethylcarbamoyl-3-[4-(2-methyl-imidazo[4,5-c]pyridin-1-ylmethyl)-benzoyl]-1H-indole-4-carboxylic acid isopropyl ester]",4.7
3,"C#Cc1cccc2c1c(C(O)c1ccc(Cn3c(C)nc4cnccc43)c(F)c1)cn2C(=O)N(C)C (stereo not drawn) [4-Ethynyl-3-{[3-fluoro-4-(2-methyl-imidazo[4,5-c]pyridin-1-ylmethyl)-phenyl]-hydroxy-methyl}-indole-1-carboxylic acid dimethylamide]",1.5
4,COC(=O)c1cccc2c1c(C(=O)c1ccc(Cn3c(C)nc4ccccc43)cc1)cn2C(=O)N(C)C [1-Dimethylcarbamoyl-3-[4-(2-methyl-benzoimidazol-1-ylmethyl)-benzoyl]-1H-indole-4-carboxylic acid methyl ester],0.92
5,"COC(=O)c1cccc2c1c(C(=O)c1ccc(Cn3c(C)nc4cnccc43)cc1)cn2CC(=O)C(C)(C)C [1-(3,3-Dimethyl-2-oxo-butyl)-3-[4-(2-methyl-imidazo[4,5-c]pyridin-1-ylmethyl)-benzoyl]-1H-indole-4-carboxylic acid methyl ester]",0.67
6,"Cc1cccc2c1c(C(=O)CN1CCC(n3c(C)nc4cnccc43)CC1)cn2C(=O)N(C)C [4-Methyl-3-{2-[4-(2-methyl-imidazo[4,5-c]pyridin-1-yl)-piperidin-1-yl]-acetyl}-indole-1-carboxylic acid dimethylamide]",2
7,"Cc1nc2cnccc2n1Cc1cccc(C(=O)c2cn(C(=O)N(C)C)c3cc(-c4ccc(F)cc4)ccc23)c1 [6-(4-Fluoro-phenyl)-3-[3-(2-methyl-imidazo[4,5-c]pyridin-1-ylmethyl)-benzoyl]-indole-1-carboxylic acid dimethylamide]",180
8,"COC(=O)c1ccc2c(c1)c(C(=O)c1ccc(Cn3c(C)nc4cnccc43)cc1)cn2C(=O)N(C)C [1-Dimethylcarbamoyl-3-[4-(2-methyl-imidazo[4,5-c]pyridin-1-ylmethyl)-benzoyl]-1H-indole-5-carboxylic acid methyl ester]",110
9,"C#Cc1cccc2[nH]cc(C(=O)c3ccc(Cn4c(C)nc5cnccc54)c(F)c3)c12 [(4-Ethynyl-1H-indol-3-yl)-[3-fluoro-4-(2-methyl-imidazo[4,5-c]pyridin-1-ylmethyl)-phenyl]-methanone]",2.2
10,"COC(=O)c1cccc2c1c(C(=O)c1ccc(Cn3c(C)nc4c(=O)[nH]ccc43)cc1)cn2C(=O)N(C)C [1-Dimethylcarbamoyl-3-[4-(2-methyl-4-oxo-4,5-dihydro-imidazo[4,5-c]pyridin-1-ylmethyl)-benzoyl]-1H-indole-4-carboxylic acid methyl ester]",4
11,"COC(=O)c1cccc2c1c(C(=O)c1ccc(Cn3c(C)nc4cnccc43)cc1)cn2CC(=O)N(C)C [1-Dimethylcarbamoylmethyl-3-[4-(2-methyl-imidazo[4,5-c]pyridin-1-ylmethyl)-benzoyl]-1H-indole-4-carboxylic acid methyl ester]",4.4
12,"Cc1cccc2c1c(C(=O)c1ccc(Cn3c(C)nc4cnccc43)cc1)cn2C(=O)N(C)C [4-Methyl-3-[4-(2-methyl-imidazo[4,5-c]pyridin-1-ylmethyl)-benzoyl]-indole-1-carboxylic acid dimethylamide]",0.82
